The values that follow come from article PMC12073402, “A Selective MAP3K1 Inhibitor Facilitates Discovery of NPM1 as a Member of the Network” (Molecules, 2025).

SMILES strings stand for the structures. Read-outs that look alike come from different tables or passages of the source.

Data set [1] in a line: Metabolic stability in human liver microsomes (LC-MS/MS). In kind it is in vitro ADME. As to conditions: Species Human. The source says:
An approach to address this issue of bioavailability is to improve metabolic stability. The para-position of the phenyl ring in acetanilide moieties is susceptible to oxidation. […] To test this, we altered the substitution pattern on the phenyl ring by moving the F atom from the ortho in 84 to the para position (Figure 1A). The regioisomer 51-106, resulting from the above change, was synthesized by coupling 3-(1-methyl-1H-pyrazol-4-yl)quinoxalin-6-amine (1) with freshly prepared 1-fluoro-4-isocyanato-2-(trifluoromethyl)benzene in dichloromethane (Scheme 1). To determine the metabolic stability of 51-106, we incubated 51-106 and analog 84 with human (pooled male and female) liver microsomes and monitored their stability using liquid chromatography–tandem mass spectrometry.
The in vitro metabolic stability of 51-106 was determined using human liver […] (XenoTech, LLC; Kansas City, KS, USA), following previously reported methods. […] Sample analysis was performed by liquid chromatography–tandem mass spectrometry (SCIEX QTRAP 4000 LC-MS/MS System, SCIEX, Framingham, MA, USA).
A general note: Liver microsomes are vesicles of endoplasmic reticulum, rich in cytochrome P450 enzymes.

Details of data set [2]: method as in PMID 34098465. As to conditions: cited from earlier work.
The test system of data set [3] is pancreatic cancer mouse model. On the set-up: method as in PMID 34098465. As to conditions: by itself and in combination with gemcitabine; cited from earlier work.
The subject of data set [4] is TNFα-induced IKKβ-mediated NFκB activation. On the set-up: method as in PMID 34098465. As to conditions: analog 84 over the earlier IKKβ inhibitor; cited from earlier work.
The test system of data set [5] is NPM1 T199 phosphorylation. In words: Western blot of NPM1 T199 phosphorylation in PANC-1 cells. As to conditions: 2 h. It counts as cell-based. The source says:
We further investigated changes in NPM1 phosphorylation in our dataset. Of the NPM1 phosphorylation sites quantified, four sites had significant dose-dependent decreases upon 51-106 treatment: S137, T199, S222, and S227. Only one of these phosphorylation sites, T199, has a commercially available antibody. Importantly, T199 phosphorylation plays an essential role in NPM1 function, as it is required for localization of NPM1 to sites of DNA double-stranded breaks, where it colocalizes with other DNA repair proteins such as γH2AX and RAD51 [38].
Cells were washed with cold 1× PBS and lysed in Radioimmunoprecipitation assay (RIPA) buffer (Cat# 89901; Thermo Fisher Scientific), sodium orthovanadate (Na3VO4) (Cat# 567540-5GM; Sigma-Aldrich; St. Louis, MO, USA), sodium fluoride (NaF) (Cat# 201154-5G, >99% purity; Sigma-Aldrich), β-glycerophosphate (Cat# G9422-10G; Sigma-Aldrich), and 1 mM phenylmethylsulfonyl fluoride (Cat# 10837091001; Sigma Aldrich). The samples were incubated on ice for 30 min, vortexed at 10 min intervals, and centrifuged at 14,000× g for 10 min at 4 °C. The supernatant was collected, and protein was quantified using the BCA Protein Assay kit (Cat# 23225; Thermo Fisher Scientific). […]
(In general: Immunoblotting shows a protein as a band on a membrane.)

One may read the Cmax as the maximum level reached in the sampled fluid or tissue. For orientation: Tmax means the time at which the peak concentration occurs. With `Cn1cc(-c2cnc3ccc(NC(=O)Nc4cccc(C(F)(F)F)c4F)cc3n2)cn1` [Analog 84], the “T1/2 (half-life) in human liver microsomes” value in data set [1] is reported as ~ 13 h. In addition, the “Hepatic Extraction Ratio (E)” value in data set [1] (human liver microsomes) was 0.09. For the same molecule, the half-life in data set [1] (both sexes, human, liver microsomes, read-out: T1/2 (half-life) in human liver microsomes (converted)) is 13.6 h. In data set [2] (20 mg/kg, Oral), the “AUC0-∞” value was 8008 ± 3696 ng·h/mL, the AUClast was 7986 ± 3675 ng·h/mL, the Cmax was 700 ± 320 ng/mL and the “MRT 0-∞” value is listed as 6.3 ± 0.5 h. In data set [2] (20 mg/kg, Oral), the T1/2 is given as 2.5 ± 0.3 h and the Tmax is recorded as 6.0 h. Besides, in data set [2] (20 mg/kg, Oral, listed as 84), the “Bioavailability (%F)” value is on record as 17.6%. Moreover, the “Bioavailability (%F)” value in data set [2] (20 mg/kg, Oral, listed as analog 84) is reported as approximately 17%. In data set [2] (analog 84 over the earlier IKKβ inhibitor), the improved bioavailability was ~ 5.7 fold. Besides, the tumor growth entry in data set [3] is on record as “inhibited tumor growth”. The improved potency in data set [4] is ~ 4 fold.

On to `CN[C@@H]1C[C@H]2O[C@@](C)([C@@H]1OC)n1c3ccccc3c3c4c(c5c6ccccc6n2c5c31)C(=O)NC4` [Staurosporine, reference compound], for which the “NPM1 T199 phosphorylation (Western blot)” value in data set [5] is “Decreased phosphorylation in NPM1 T199”.
